This is an account of results in the NIST ThermoML archive (doi:10.1016/j.jct.2017.03.027).

The conditions of data set [1]: 100 kPa, Liquid, Vibrating tube method.
A short description of data set [2]: molar heat capacity at constant pressure. The settings on record: 100 kPa, Liquid, Large sample (1 g) DSC.
A short description of data set [3]: xn = mol fraction of the nth substance listed. The settings on record: 100 kPa, Liquid, Vibrating tube method, x2 = 0.
The nature of data set [4]: molar heat capacity at constant pressure; xn = mol fraction of the nth substance listed. The settings on record: 100 kPa, Liquid, Large sample (1 g) DSC, x2 = 0.

± gives the expanded uncertainty stated by the source.

The mass density is the mass of a sample divided by its volume. For the molecule `Cc1ccc(C(C)C)cc1` [1-(1-methylethyl)-4-methylbenzene], the mass density in data set [1] (298.15 K) is on record as 852.93 ± 0.71 kg/m3; in data set [1] (308.15 K), 844.89 ± 0.71 kg/m3; in data set [1] (318.15 K) it was 836.81 ± 0.71 kg/m3; in data set [1] (328.15 K) it was 828.69 ± 0.71 kg/m3. For the same molecule, the “molar heat capacity at constant pressure” value in data set [2] (298.6 K) is 240.3 ± 3.9 J/K/mol; in data set [2] (308.5 K) it was 244.7 ± 4 J/K/mol; in data set [2] (318.5 K), 249.4 ± 4.1 J/K/mol; in data set [2] (328.4 K) it was 254.4 ± 4.1 J/K/mol.
Consider `CCO` [ethanol], for which the mass density in data set [1] (298.15 K) came to 785.11 ± 0.71 kg/m3; in data set [1] (308.15 K) it was 776.44 ± 0.71 kg/m3; in data set [1] (318.15 K), 767.62 ± 0.71 kg/m3; in data set [1] (328.15 K), 758.6 ± 0.71 kg/m3. Also, the “molar heat capacity at constant pressure” value in data set [2] (298.6 K) came to 112 ± 1.8 J/K/mol; in data set [2] (308.5 K) it was 116.4 ± 1.9 J/K/mol; in data set [2] (318.5 K) it was 121 ± 2 J/K/mol; in data set [2] (328.4 K), 125.6 ± 2 J/K/mol.
`CCO` [ethanol] + Cc1ccc(C(C)C)cc1: the mass density in data set [3] (298.15 K) was determined as 785.11 ± 0.71 kg/m3; in data set [3] (308.15 K), 776.44 ± 0.71 kg/m3; in data set [3] (318.15 K), 767.62 ± 0.71 kg/m3; in data set [3] (328.15 K) it was 758.6 ± 0.71 kg/m3. Further, the “molar heat capacity at constant pressure” value in data set [4] (298.6 K) was determined as 112 ± 1.8 J/K/mol; in data set [4] (308.5 K), 116.4 ± 1.9 J/K/mol; in data set [4] (318.5 K), 121 ± 2 J/K/mol; in data set [4] (328.4 K) it was 125.6 ± 2 J/K/mol.
